We go through one molecule from patent US20250171821A1, “HIF-1 ACTIVATORS AND USES THEREOF” (Ramot at Tel-Aviv University Ltd., priority 2022, published 2025).

The test system of one data set is NIH/3T3 cell line. Nature of the data set: Collagen type 1 immunofluorescence in NIH/3T3 cells (Incucyte). Type of data set: cell-based, mouse. As to the method:
Embryonic mouse fibroblast NIH/3T3 cell line (ATCC) were seeded at a concentration of 50*10^3 cells/well on 96 well glass bottom plate (P96-1.5H-N, Cellvis) for the immunofluorescence experiment and on cell culture microplate, 96 well, PS, F-Bottom (655090, greiner) for the viability experiment. The cells were cultured with Dulbecco's modified Eagle's medium (DMEM) supplemented with 10% fetal calf serum, 1% Penicillin-Streptomycin solution and 1% L-glutamine (All purchased from Rhenium). At 24 hours post seeding, cells were treated for another 48 hours by replacing them with the cell medium supplemented with a serial dilution (5-0.02 μM, factor dilution of 2) of the ML228, Daprodustat, Enarodustat, Molidustat, Vadadustat or Roxadustat molecules dissolved in DMSO. The final DMSO concentration in the cell medium was 0.01%. Cells were maintained in an incubator at 37° C. in a humidified atmosphere containing 5% CO2.
At 48 hours post treatment with either Daprodustat, Enarodustat, Molidustat, Vadadustat or Roxadustat, cells were fixed for 10 minutes together with their media with 8% paraformaldehyde (PFA, Electron Microscopy Sciences) dissolved in phosphate-buffered saline (PBS, Invitrogen) to a final concentration of 4% PFA, without any wash to avoid cells detachment from the glass. Cells were briefly washed four times with ice-cold PBS to remove the PFA and kept overnight at 4° C. The following day, a blocking solution which contains 1.5% Bovine Serum Albumin (Sigma Aldrich) dissolved in PBS was applied for 30 minutes, followed by an overnight incubation at 4° C. with recombinant rabbit anti-mouse Collagen-I 1° antibody (primary Ab) [EPR24331-53] (ab270993, Abcam), dissolved in the blocking solution (1:1000 dilution). The following day, cells were washed for 3 times with PBS (5 minutes each), followed by immunostaining with goat anti-rabbit IgG H&L (Alexa Fluor® 488) 2° antibody (secondary Ab) (ab150077, Abcam) dissolved in blocking solution (1:1000 dilution). Cells were washed again for 3 times with PBS (5 minutes each), stained for 30 minutes with DRAQ5™ (ab108410, Abcam) for nuclei staining dissolved in PBS (1:1000 dilution), and washed once again with PBS. For the ML228 experiment, cells were washed with PBS before applying 4% PFA dissolved in PBS. Then, fixed cells were additionally permeabilized with 0.2% Triton™ X-100 (Merck) dissolved in PBS, additionally stained with Phalloidin-Atto 594 (51927, Sigma Aldrich) for F-Actin staining for 1 hour (1:250 dilution) together with the aforementioned secondary antibody, followed by 10 minutes incubation with DAPI staining solution (ab228549, Abcam) for nuclei staining dissolved in PBS (1:1000 dilution).
Images were taken using a ZEISS LSM 900 in wide-field or in the LSM confocal detection mode (ML228 experiment), using Zen 3.1. Fluorescence readouts were obtained at excitation/emission: 353/465 nm (DAPI), 493/517 nm (Collagen-I), 590/618 (F-Actin) and 647/683 nm (DRAQ5) using a Plan-Apochromat 20×/0.8 M27 objective.
Image acquisition and quantification were performed by Incucyte SX5 (Sartorius) using software version 2022B Rev2. A standard scan was done for 9 images per well using 20× objective, 2 optical modules (green at excitation/emission of 453-485 nm/494-533 nm in 300 msec acquisition time, and near-IR at excitation/emission of 648-674 nm/685-756 nm in 400 msec acquisition time, including Phase channel) following immunofluorescence protocol. For the image analysis, 2-6 replicates per condition were used. Using the Basic Analyzer mode, “Phase Object Confluence (%)” was acquired using the Phase channel. This measurement is the percentage of the image area occupied by cells. “Total Collagen-I Integrated Intensity Per Image (GCU×μm^2/Image)” was acquired using the green optical module. GCU stands for Green calibrated Unit, while this measurement is the total sum of the Collagen-I objects' fluorescent intensity in the image. “#Cells (Per image)” was acquired by the near-IR optical module. […]

The next data set concerns osteoblasts. Nature of the data set: Cell-Titer assay of cellular ATP levels, osteoblasts. The class given is cell-based. As to conditions: 48 hours. As to the method: MG-63 human osteosarcoma cell lines were obtained from the American Type Culture Collection (ATCC, Manassas, VA, USA). Cells were cultured in α-MEM supplemented with 10% FCS, 100 U/ml penicillin, and […] streptomycin at 37° C. in a humidified atmosphere incubator containing 5% CO2. Before treatment with ML228, 5,000 and 50,000 cells/well were seeded in a 96 or 24 well-plate, respectively.
(§1) The live/dead viability assay (cat #04511-1KT-F Merck, Germany) was used according to the manufacturer's protocol. Briefly, cells were incubated in a medium supplemented with the indicated concentrations of ML228 for 48 hours. Fluorescein diacetate (6.6 μg/mL) and propidium iodide (5 μg/mL) (Merck, NJ, USA) were prepared in DMEM and added to the cells. Confocal images were captured after addition of the dyes with ZEISS LSM 900, Laser Scanning Microscope. Fluorescence readouts were obtained with ex/em of 490/515 nm and 535/617 nm for green and red, respectively. Cellular ATP levels were quantified using the cell-titer assay (Promega, WI, USA cat #G7570).

In another data set the test system is MG-63 cells. In words: live/dead viability assay, osteoblasts. Type of data set: cell-based. As to conditions: MG-63 osteoblasts, ML228 0.62 and 5 μM, 48 hours. As to the method:
as §1

The next data set deals with fibroblasts. In words: Cell-Titer assay of cellular ATP levels, fibroblasts. The class given is cell-based. As to conditions: for IC50: Homo sapiens, Fibroblast.
Description: Human fibroblasts were isolated from fragments of healthy masticatory oral mucosa (from the posterior hard palate) collected during periodontal surgeries. Informed consent was obtained from all patients. Shallow tissue samples (without submucosa) with a diameter of approximately 2 mm were excised using a #15C scalpel blade. Exclusion criteria for potential tissue donors were smoking, any systemic disease, pregnancy or lactation, or a history of periodontal disease. Cells were separated into connective tissue and epithelium using dispase II (Sigma-Aldrich, Rehovot, Israel) at 2 mg/mL for two hours at 37° C.
as §1

Entries after “also recorded” stand apart in the source; their conditions may differ. Read-outs that look alike come from different tables or passages of the source.

Broadly, the IC50 is the concentration that inhibits the measured activity by half. For the molecule `c1ccc(-c2ccc(CNc3nc(-c4ccccn4)nnc3-c3ccccc3)cc2)cc1` [ML228, N-([1,1′-Biphenyl]-4-ylmethyl)-6-phenyl-3-(2-pyridinyl)-1,2,4-triazin-5-amine], the “Collagen type 1 normalized to cells confluence vs untreated cells” value in the data set with NIH/3T3 cell line (5 μM ML228, 48 hours, p<0.05) is listed as “reduction”. In the data set on NIH/3T3 cell line (48 hours, one-way ANOVA, p<0.05 to p<0.0001), the “concentrations with significant increase of Collagen type 1 normalized to cells confluence vs untreated cells” value was 0.31 to 2.5 µM. Further, the IC50 is 567 nM in the data set on osteoblasts (Homo sapiens, Osteoblast, read-out: IC50 (ATP levels relative to non-treated cells)); 679 nM in the data set with fibroblasts (fibroblasts, 48 hours, read-out: IC50 (ATP levels relative to non-treated cells)); ~600 nM in the data set with fibroblasts (summary statement for the treated cells (fibroblasts and osteoblasts), read-out: IC50 of cellular viability of ML228-treated cells). Further, the “metabolically active cell viability as measured by ATP levels” value in the data set with osteoblasts (increasing ML228 concentrations) is recorded as “decrease in metabolically active cell viability”; in the data set on fibroblasts (fibroblasts, increasing ML228 concentrations, 48 hours), “decrease in metabolically active cell viability”. Moreover, the “cell death / cellular toxicity (live/dead assay)” value in the data set on MG-63 cells was “without imparting cellular toxicity; also recorded: Almost no dead cells were observed; also recorded: not an increase in cell death”.
